Measurements: ChEMBL document CHEMBL5665443, “Enzyme Inhibitor Single Concentration assay results for EUbOPEN Chemogenomics Library” (2024)

How the values were obtained:
Conditions in all cases: Hit No
[1] = target: Methyl-CpG-binding domain protein 4 (Homo sapiens) (UniProt O95243);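 further: MBD4 activity read as fluorescence at 594 nm from cleavage and release of a quenched duplex DNA oligonucleotide, with APE1 coupled to incise the strand and raise turnover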
Description: Inhibition of MBD4 by quantifying inhibition of MBD4-mediated cleavage and dissociation of quenched duplex DNA oligonucleotides, measured as fluorescence at 594 nm. To generate a functional strand incision and increase turn-over this assay is coupled to APE1.

[2] = target: T1, Adenine DNA glycosylase (Homo sapiens) (UniProt Q9UIF7);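 further: human MUTYH activity read as 594 nm fluorescence from cleavage and release of a quenched DNA duplex, coupled with APE1 for strand incision, lower signal meaning inhibition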
T1 sequence (whole entry): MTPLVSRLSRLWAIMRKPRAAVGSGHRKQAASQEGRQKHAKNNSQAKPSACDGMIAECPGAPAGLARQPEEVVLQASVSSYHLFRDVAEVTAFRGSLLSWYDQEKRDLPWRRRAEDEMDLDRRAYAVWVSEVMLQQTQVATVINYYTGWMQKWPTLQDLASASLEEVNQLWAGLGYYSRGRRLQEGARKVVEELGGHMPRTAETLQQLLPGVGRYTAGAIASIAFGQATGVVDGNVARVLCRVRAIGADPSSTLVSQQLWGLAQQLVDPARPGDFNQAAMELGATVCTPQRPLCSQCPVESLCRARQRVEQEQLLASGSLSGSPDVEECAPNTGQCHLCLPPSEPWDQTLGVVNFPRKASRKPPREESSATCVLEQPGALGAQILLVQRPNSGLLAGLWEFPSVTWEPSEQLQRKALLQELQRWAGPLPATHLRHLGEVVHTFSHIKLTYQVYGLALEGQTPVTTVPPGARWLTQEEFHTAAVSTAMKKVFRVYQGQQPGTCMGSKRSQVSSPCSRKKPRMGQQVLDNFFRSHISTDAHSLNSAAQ
Description: Inhibition of MUTYH by quantifying inhibition of MUTYH-mediated cleavage and dissociation of quenched duplex DNA oligonucleotides, measured as fluorescence at 594 nm. To generate a functional strand incision and increase turn-over this assay is coupled to APE1.

[3] = target: Endonuclease 8-like 1 (Homo sapiens) (UniProt Q96FI4);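 further: fluorescence at 594 nm from quenched duplex DNA oligonucleotides released by NEIL1 cleavage and strand separation, reported as reduction of this enzyme activity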
Description: Inhibition of NEIL1 by quantifying inhibition of NEIL1-mediated cleavage and dissociation of quenched duplex DNA oligonucleotides, measured as fluorescence at 594 nm.

[4] = target: T2, Endonuclease 8-like 2 (Homo sapiens) (UniProt Q969S2);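 further: fluorescence at 594 nm reports NEIL2 cutting and release of a quenched double-stranded DNA oligo substrate, reduced signal read as inhibition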
T2 sequence (whole entry): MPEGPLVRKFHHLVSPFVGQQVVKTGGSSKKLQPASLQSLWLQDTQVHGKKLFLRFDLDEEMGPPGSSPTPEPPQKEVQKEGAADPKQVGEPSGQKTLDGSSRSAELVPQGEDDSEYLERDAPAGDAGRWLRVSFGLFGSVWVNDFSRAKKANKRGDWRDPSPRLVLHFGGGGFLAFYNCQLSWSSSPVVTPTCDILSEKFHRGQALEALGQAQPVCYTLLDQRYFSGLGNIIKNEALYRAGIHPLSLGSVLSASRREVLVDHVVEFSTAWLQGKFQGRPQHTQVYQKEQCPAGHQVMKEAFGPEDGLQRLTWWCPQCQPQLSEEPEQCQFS
Description: Inhibition of NEIL2 by quantifying inhibition of NEIL2-mediated cleavage and dissociation of quenched duplex DNA oligonucleotides, measured as fluorescence at 594 nm.

[5] = target: N-glycosylase/DNA lyase (Homo sapiens) (UniProt O15527);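 further: OGG1 cleavage of a quenched duplex DNA oligonucleotide, coupled to APE1 for strand incision, read as fluorescence at 594 nm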
Description: Inhibition of OGG1 by quantifying inhibition of OGG1-mediated cleavage and dissociation of quenched duplex DNA oligonucleotides, measured as fluorescence at 594 nm. To generate a functional strand incision and increase turn-over this assay is coupled to APE1.

[6] = target: T3, Single-strand selective monofunctional uracil DNA glycosylase (Homo sapiens) (UniProt Q53HV7);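 further: enzymatic SMUG1 assay coupled with APE1, reading fluorescence at 594 nm released when a quenched double-stranded DNA oligonucleotide substrate is cleaved and separated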
T3 sequence (whole entry): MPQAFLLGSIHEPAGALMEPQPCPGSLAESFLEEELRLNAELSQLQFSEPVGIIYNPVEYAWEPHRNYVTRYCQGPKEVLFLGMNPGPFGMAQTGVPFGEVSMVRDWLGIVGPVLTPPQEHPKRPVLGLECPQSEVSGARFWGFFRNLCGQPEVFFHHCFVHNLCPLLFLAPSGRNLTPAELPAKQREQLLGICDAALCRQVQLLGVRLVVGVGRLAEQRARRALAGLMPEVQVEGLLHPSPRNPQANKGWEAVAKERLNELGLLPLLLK
Description: Inhibition of SMUG1 by quantifying inhibition of SMUG1-mediated cleavage and dissociation of quenched duplex DNA oligonucleotides, measured as fluorescence at 594 nm. To generate a functional strand incision and increase turn-over this assay is coupled to APE1.

[7] = target: G/T mismatch-specific thymine DNA glycosylase (Homo sapiens) (UniProt Q13569);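 further: human TDG cleavage of quenched duplex DNA oligonucleotides coupled to APE1, strand release read as fluorescence at 594 nm, inhibition of TDG activity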
Description: Inhibition of TDG by quantifying inhibition of TDG-mediated cleavage and dissociation of quenched duplex DNA oligonucleotides, measured as fluorescence at 594 nm. To generate a functional strand incision and increase turn-over this assay is coupled to APE1.

[8] = target: Uracil-DNA glycosylase (Homo sapiens) (UniProt P13051);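 further: UNG excision on a quenched double-stranded DNA oligo probe, with APE1 added for strand incision and turnover, read as fluorescence at 594 nm as strands separate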
Uracil-DNA glycosylase (Homo sapiens), sequence (P13051 whole entry): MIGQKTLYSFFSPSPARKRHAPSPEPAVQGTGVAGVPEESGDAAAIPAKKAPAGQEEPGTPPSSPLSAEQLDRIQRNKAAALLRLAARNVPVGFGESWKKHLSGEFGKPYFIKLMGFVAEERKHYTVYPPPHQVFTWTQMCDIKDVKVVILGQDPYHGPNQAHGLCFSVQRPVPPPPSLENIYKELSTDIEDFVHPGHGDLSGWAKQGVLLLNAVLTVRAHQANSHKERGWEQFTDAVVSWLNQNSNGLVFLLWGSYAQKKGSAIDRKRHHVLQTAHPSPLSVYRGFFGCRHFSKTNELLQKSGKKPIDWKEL
Description: Inhibition of UNG by quantifying inhibition of UNG-mediated cleavage and dissociation of quenched duplex DNA oligonucleotides, measured as fluorescence at 594 nm. To generate a functional strand incision and increase turn-over this assay is coupled to APE1.

Methyl-CpG-binding domain protein 4 (Homo sapiens), sequence (O95243 whole entry, the tested form may be a part): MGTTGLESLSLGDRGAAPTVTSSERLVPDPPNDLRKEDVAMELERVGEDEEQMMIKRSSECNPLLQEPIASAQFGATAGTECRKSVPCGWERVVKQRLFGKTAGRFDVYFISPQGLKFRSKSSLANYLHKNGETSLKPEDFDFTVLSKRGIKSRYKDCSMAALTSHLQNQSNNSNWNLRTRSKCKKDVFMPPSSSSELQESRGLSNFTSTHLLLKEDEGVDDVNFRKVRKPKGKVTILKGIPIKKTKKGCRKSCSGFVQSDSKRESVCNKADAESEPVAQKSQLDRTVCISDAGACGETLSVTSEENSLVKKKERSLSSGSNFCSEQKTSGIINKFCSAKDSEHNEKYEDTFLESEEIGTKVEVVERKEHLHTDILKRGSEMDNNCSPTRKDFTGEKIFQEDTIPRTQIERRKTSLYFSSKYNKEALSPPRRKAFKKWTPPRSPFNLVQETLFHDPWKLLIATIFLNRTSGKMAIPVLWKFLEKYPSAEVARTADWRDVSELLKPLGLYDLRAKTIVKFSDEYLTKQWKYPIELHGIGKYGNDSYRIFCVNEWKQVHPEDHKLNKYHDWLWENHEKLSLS
Endonuclease 8-like 1 (Homo sapiens), sequence (Q96FI4 whole entry): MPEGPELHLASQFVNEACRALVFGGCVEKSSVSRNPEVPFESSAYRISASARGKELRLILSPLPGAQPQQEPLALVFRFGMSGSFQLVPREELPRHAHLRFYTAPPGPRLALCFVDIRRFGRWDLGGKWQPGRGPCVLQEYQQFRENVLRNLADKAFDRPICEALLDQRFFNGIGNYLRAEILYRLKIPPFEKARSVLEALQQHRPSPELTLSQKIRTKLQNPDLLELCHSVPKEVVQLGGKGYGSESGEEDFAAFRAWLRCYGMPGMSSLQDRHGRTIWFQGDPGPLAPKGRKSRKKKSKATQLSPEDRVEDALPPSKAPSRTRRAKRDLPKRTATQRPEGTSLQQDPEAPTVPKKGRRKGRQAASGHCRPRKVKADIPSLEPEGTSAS
G/T mismatch-specific thymine DNA glycosylase (Homo sapiens), sequence (Q13569 whole entry): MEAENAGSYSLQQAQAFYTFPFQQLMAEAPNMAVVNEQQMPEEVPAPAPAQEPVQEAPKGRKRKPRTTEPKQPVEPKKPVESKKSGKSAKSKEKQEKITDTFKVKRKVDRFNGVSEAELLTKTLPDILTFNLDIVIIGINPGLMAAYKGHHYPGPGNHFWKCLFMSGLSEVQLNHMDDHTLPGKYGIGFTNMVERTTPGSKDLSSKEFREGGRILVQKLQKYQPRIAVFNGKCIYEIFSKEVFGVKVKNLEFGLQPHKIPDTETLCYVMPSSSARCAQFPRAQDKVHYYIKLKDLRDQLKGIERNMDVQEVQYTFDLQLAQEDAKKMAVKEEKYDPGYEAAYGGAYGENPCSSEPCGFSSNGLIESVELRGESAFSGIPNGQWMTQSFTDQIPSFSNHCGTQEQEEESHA
N-glycosylase/DNA lyase (Homo sapiens), sequence (O15527 whole entry): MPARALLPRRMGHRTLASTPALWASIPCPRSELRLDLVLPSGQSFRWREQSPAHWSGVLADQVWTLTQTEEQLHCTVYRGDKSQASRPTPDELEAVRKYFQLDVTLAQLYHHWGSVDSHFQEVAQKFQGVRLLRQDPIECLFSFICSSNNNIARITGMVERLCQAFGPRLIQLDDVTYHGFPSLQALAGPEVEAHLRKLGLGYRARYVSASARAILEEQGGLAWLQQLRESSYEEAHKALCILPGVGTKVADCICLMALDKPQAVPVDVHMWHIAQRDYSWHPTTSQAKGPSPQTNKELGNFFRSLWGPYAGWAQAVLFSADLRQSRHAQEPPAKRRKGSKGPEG

inhibition ([1]; Compound Concentration 1.0 uM) [%] | inhibition ([2]; Compound Concentration 1.0 uM) [%] | inhibition ([3]; Compound Concentration 1.0 uM) [%] | inhibition ([4]; Compound Concentration 1.0 uM) [%] | inhibition ([5]; Compound Concentration 1.0 uM) [%] | inhibition ([6]; Compound Concentration 1.0 uM) [%] | inhibition ([7]; Compound Concentration 1.0 uM) [%] | inhibition ([8]; Compound Concentration 1.0 uM) [%] | inhibition ([1]; Compound Concentration 10.0 uM) [%] | inhibition ([2]; Compound Concentration 10.0 uM) [%] | inhibition ([3]; Compound Concentration 10.0 uM) [%] | inhibition ([4]; Compound Concentration 10.0 uM) [%] | inhibition ([5]; Compound Concentration 10.0 uM) [%] | inhibition ([6]; Compound Concentration 10.0 uM) [%] | inhibition ([7]; Compound Concentration 10.0 uM) [%] | inhibition ([8]; Compound Concentration 10.0 uM) [%] | Structure (SMILES)
 |  |  |  |  |  |  |  | 67 | 1.15 | -9.53 | 3.59 | 15.1 | 22.8 | 99.2 | 7.72 | CCC(C)N(C)C(=O)c1cc2ccccc2c(-c2ccccc2Cl)n1 (stereo not given)
31.7 | 26.6 |  | -7.61 | 4.13 | 21.7 | 71.4 | 3.74 |  |  |  |  |  |  |  |  | NC(=O)c1ccc2nc(-c3ccc(C4(N)CCC4)cc3)c(-c3ccccc3)n2n1
 |  |  |  |  |  |  |  | -0.894 | 3.59 | -4.22 | -1.92 | 1.15 | 27.3 | 66.4 | 2.98 | O=C(Nc1nc2cccc(-c3ccc(CN4CCS(=O)(=O)CC4)cc3)n2n1)C1CC1
 |  |  |  |  |  |  |  | 60.5 | -5.95 |  | 6.4 | -1.74 | 10.2 | 45.5 | -0.968 | CC(=O)C1=C(C)N(c2cccc(C(F)(F)F)c2)C(=O)N[C@H]1c1ccc(C#N)nc1
66.5 | -2.67 |  | -6.61 | -3.12 | 5.35 | 28.1 | -1.88 |  |  |  |  |  |  |  |  | CCS(=O)(=O)c1cc2cc(C[C@@](O)(CC(C)(C)c3ccc(F)cc3C(N)=O)C(F)(F)F)[nH]c2cn1
 |  |  |  |  |  |  |  | 65.1 | -4.86 |  | -6.87 | 7.36 | 20.9 | 43.6 | 1.73 | CCO[C@@H](Cc1ccc(OCCc2ccc(OS(C)(=O)=O)cc2)cc1)C(=O)O
 |  |  |  |  |  |  |  | 29.7 | 3.93 |  | -3.37 | 4.45 | 21.2 | 70.5 | 3.78 | C[C@@H](NC(=O)Nc1cc2[nH]ncc2c(CO)n1)c1ccccc1
 |  |  |  |  |  |  |  | 62.4 | 8.31 |  | 8.7 | -8.13 | 9.01 | 41.7 | -2.88 | CCC(=O)N[C@H]1CC[C@@H](C(=O)N(C)c2ccc(-c3nc4ccccc4o3)cc2)C1

More lines, now with the values behind:

Structure (SMILES) | inhibition ([1]; Compound Concentration 1.0 uM) [%] | inhibition ([2]; Compound Concentration 1.0 uM) [%] | inhibition ([3]; Compound Concentration 1.0 uM) [%] | inhibition ([4]; Compound Concentration 1.0 uM) [%] | inhibition ([5]; Compound Concentration 1.0 uM) [%] | inhibition ([6]; Compound Concentration 1.0 uM) [%] | inhibition ([7]; Compound Concentration 1.0 uM) [%] | inhibition ([8]; Compound Concentration 1.0 uM) [%] | inhibition ([1]; Compound Concentration 10.0 uM) [%] | inhibition ([2]; Compound Concentration 10.0 uM) [%] | inhibition ([3]; Compound Concentration 10.0 uM) [%] | inhibition ([4]; Compound Concentration 10.0 uM) [%] | inhibition ([5]; Compound Concentration 10.0 uM) [%] | inhibition ([6]; Compound Concentration 10.0 uM) [%] | inhibition ([7]; Compound Concentration 10.0 uM) [%] | inhibition ([8]; Compound Concentration 10.0 uM) [%]
COc1cc2ncn(-c3cc(OCc4ccccc4C(F)(F)F)c(C(N)=O)s3)c2cc1OC | 6.17 | -6.25 | -7 | -8.65 | 0.727 | 10.2 | 35.1 | 3.27 |  |  |  |  |  |  |  | 
Cc1cc(-c2ccnc(Nc3cnn(C)c3)n2)ccc1CNC(=O)N1CC(OC(C)C)C1 |  |  |  |  |  |  |  |  | 12.6 | 22.5 | -3.03 | -6.23 | 9.56 | 28.1 | 44.6 | 4.16
Nc1nc(NCc2ccccc2)nc(-c2ccccc2CO)n1 |  |  |  |  |  |  |  |  | 61.2 | -3 | -7.11 | 5.12 | 4.21 | -2.01 | 52 | 2.12
Cn1cc(Nc2nccc(N3CC4CCC(C3)N4C(=O)[C@@H]3CC3(F)F)n2)cn1 |  |  |  |  |  |  |  |  | -6.61 | -8.86 | 0.138 | -8.92 | -0.945 | 8.21 | 35.9 | -0.791
CC(=O)c1c(C)c2cnc(Nc3ccc(N4CCNCC4)cn3)nc2n(C2CCCC2)c1=O | -1.7 | 37.5 | 8.59 | 2.12 | 4.49 | 19.2 | 39.5 | 3.08 |  |  |  |  |  |  |  | 
COc1cc(-c2cncc(-c3ccc(N4CCN(C(C)C)CC4)cc3)c2C)cc(F)c1C(N)=O |  |  |  |  |  |  |  |  | 0.764 | -6.43 | 5.68 | 1.85 | 10.3 | 31.3 | 38.5 | 5.22
O=S(=O)(Nc1ccc(C(O)(C(F)(F)F)C(F)(F)F)cc1)c1cccs1 |  |  |  |  |  |  |  |  | 63.6 | 12.6 | -9.23 | -2.02 | 9.18 | 19.9 | 99.8 | 4.47
CN(C)[C@H]1CCN(c2cc(-c3ccccc3)nc3ccnn23)C1 |  |  |  |  |  |  |  |  | 77.8 | 15.6 | 6.98 | 9.71 | 10.6 | 13.5 | 49 | 9.72
Cc1nc(-c2cn3c(n2)-c2ccc(-c4cnn(C(C)(C)C(N)=O)c4)cc2OCC3)n(C(C)C)n1 | -2.34 | 3.04 |  | -7.57 | 1.09 | 19.2 | 60 | 0.537 |  |  |  |  |  |  |  | 
O=C(NCc1ncc(C(F)(F)F)cc1Cl)c1ccc2c(c1)C1(CCS(=O)(=O)CC1)[C@H](C1CC1)N2S(=O)(=O)c1ccc(F)cc1 | 59.6 | 2.13 |  | -0.744 | -6.07 | -4 | 38.8 | -0.35 |  |  |  |  |  |  |  | 
CCNC(=O)c1cc2c(N3CCOC[C@@H]3C)ccnc2n1C |  |  |  |  |  |  |  |  | 67 | -5.18 |  | -9.42 | 11.4 | 6.82 | 31.4 | -0.625
Cn1nc(C(F)(F)F)cc1-c1cnc(N2CCc3cc(S(=O)(=O)Nc4c(F)cc(Cl)cc4F)cc(N4CCCC4=O)c32)nc1 |  |  |  |  |  |  |  |  | 59.5 | 17.9 |  | 4.87 | 12.6 | 9.91 | 53.9 | 1.37
